# Key:
# [1] = target: Aβ42 fibers (Homo sapiens, UniProt P05067); conditions: cited from earlier work
# [2] = Biodistribution of 4-[^18F]-fluoroinositol in normal rats; assay type: in vivo; conditions: FIG. 1
# [3] = Biodistribution / brain uptake of ^18F-scyllo-inositols 1 and 2; assay type: in vivo, rats
# Protocol: Brain uptake (% DPG) at 5, 30, and 60 min for the acetylated derivative 1 was 0.8%, 0.9%, and 0.26% (See FIG. 4).
# Inositol is transported across the blood-brain barrier by a low capacity, saturable system.
# [4] = rat, in vivo
# Protocol: Here, imaging is performed in normal rats and rats pretreated with mannitol.
# PET imaging was performed in a rats using a Siemens Focus 220 scanner with Neurological CT scanner. [^18F]-fluoromannitol (1.2 mCi) was injected via tail-vein and imaged in list mode for one hour.
# In a separate experiment, a 25% solution of D-mannitol was i.v. injected 30 min prior to tracer injection.
# [5] = test system: large intestinal cancer; conditions: rats fed prior to carcinogen treatment; cited from earlier work
# Chain of Aβ42 fibers (P05067 672-713 limits assumed): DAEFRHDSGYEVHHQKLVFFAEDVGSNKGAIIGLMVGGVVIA
structure (smiles),measurement,setting,value
OC1C(O)C(O)C(F)C(O)C1O (centres unmarked) [1-deoxy-1-fluoro-scyllo-inositol],formation of Aβ42 fibers,[1],significantly inhibit
"OC1C(O)C(O)C(F)C(O)C1O (centres unmarked) [4-[^18F]-fluoroinositol, 4-deoxy-4-fluoro-myo-inositol]",defluorination,[2],minimal
same,tissue accumulation (biodistribution),[2],high and fast accumulation in kidney and bladder without any other specific tissue accumulation
"CC(=O)OC1C([18F])C(OC(C)=O)C(OC(C)=O)C(OC(C)=O)C1OC(C)=O (centres unmarked) [Compound 1, 1-deoxy-1-[^18F]-fluoro-2,3,4,5,6-penta-O-acetyl-scyllo-inositol]",brain clearance,"[3]; rat, in vivo",significant brain clearance
"OC1C(O)C(O)C([18F])C(O)C1O (centres unmarked) [Compound 2, 1-deoxy-1-[^18F]-fluoro-scyllo-inositol]",Brain uptake (% DPG),[3]; 5 min,0.18 % DPG
same,Brain uptake (% DPG),[3]; 30 min,0.30 % DPG
same,Brain uptake (% DPG),[3]; 60 min,0.36 % DPG
same,site of majority of the activity,[3]; FIG. 5,majority of the activity accumulating in kidneys
"OC[C@@H](O)[C@@H](O)[C@H](O)[C@H](O)C[18F] [[^18F]-Fluoromannitol, 1-deoxy-1-[^18F]-fluoro-D-mannitol]",Brain accumulation (% injected dose),[4],0.1 % ID
same,Brain activity (% injected dose),[4],0.08 % ID
same,brain uptake in the images,[4],high brain uptake
same,early brain kinetics,[4],very fast flow related brain accumulation and washout
O[C@H]1[C@H](O)[C@@H](O)[C@H](O)[C@@H](O)[C@@H]1O [scyllo-inositol],formation of Aβ42 fibers,[1],inhibiting Aβ42 fiber formation
O=P([O-])(O)OC1C(OP(=O)(O)O)C(OP(=O)(O)O)C(OP(=O)(O)O)C(OP(=O)(O)O)C1OP(=O)(O)O.[Na+] (centres unmarked) [sodium inositol hexaphosphate],decrease in large intestinal cancer compared to the control carcinogen group,[5],35%

# Source: US20210238124A1, “ACETYLATED PRODRUGS FOR DELIVERY ACROSS THE BLOOD-BRAIN BARRIER” (THE GENERAL HOSPITAL CORPORATION, priority 2018, published 2021)
